Measurements from patent publication US11872263B2, “AIMP1 protein fragment and hair growth-promoting composition containing same as active ingredient” (CUREBIO THERAPEUTICS, priority 2016, dated 2024).

tested on: dorsal hair of depilated C57BL6 mice; experiment: In vivo hair regrowth after depilation of dorsal skin of mice; parameters: species or system mouse; settings: 13 days after depilation, 100 nM polypeptide, 80 μl topical once a day
Method: (§1) The hair of the dorsal skin of mice (7 weeks old male C57BL6, purchased from Orient Bio Inc.) was cut out with a clipper, and hair removal cream (Niclean, Ildong Pharmaceutical) was applied. The depilated area was about 2×2.5 cm. Mice were treated with 20% glycerol/PBS (control group), 3% Minoxidil (MNX, 140 mM), FGF7 (100 nM) or Neo-Pep of the present invention (polypeptide of SEQ ID NO: 1, 100 nM), respectively, once a day in 80 μl using brush, for 13 days (n=6 per group).
as §1, with “Specifically, the hair” for “The hair”, “of a mouse” for “of mice”, “group). For comparative observation, the dorsal skin of the mouse was photographed before and after the beginning of the test.” for “group).”

Sequence | dorsal hair growth compared with control group
ADQIIEYLKQQVSLL (Homo sapiens N11 polypeptide; Neo-Pep-(13-27)) [Polypeptide N11, fragment of Neo-Pep consisting of 15 amino acids without KEKA] | didn't show such effect
AVLKRLEQKGAEADQ (Homo sapiens N9 polypeptide; Neo-Pep-(1-15)) [Polypeptide N9, fragment of Neo-Pep consisting of 15 amino acids without KEKA] | didn't show such effect
EADQIIEYLKQQVSL (Homo sapiens N10 polypeptide; Neo-Pep-(12-26)) [Polypeptide N10, fragment of Neo-Pep consisting of 15 amino acids without KEKA] | didn't show such effect
IEYLKQQVSLLKEKA (Homo sapiens N12 polypeptide; Neo-Pep-(17-31)) [Polypeptide N12, fragment of Neo-Pep consisting of 15 amino acids comprising KEKA] | grew much more
KQQVSLLKEKAILQA (Homo sapiens N13 polypeptide; Neo-Pep-(21-35)) [Polypeptide N13, fragment of Neo-Pep consisting of 15 amino acids comprising KEKA] | grew much more
LKEKAILQATLREEK (Homo sapiens N14 polypeptide; Neo-Pep-(27-41)) [Polypeptide N14, fragment of Neo-Pep consisting of 15 amino acids comprising KEKA] | grew much more

tested on: CD34+ hair follicle stem cells; experiment: In vitro hair growth assay / BrdU proliferation assay with CD34+ hair follicle stem cells; type: cell-based, mouse; settings: each peptide 100 nM, 24 hours
Method: The hair of the dorsal skin of 7 weeks old male C57BL6 mice (purchased from Orient Bio Inc.) were cut with a clipper and skin tissue samples of the depilated dorsal region of the mice were collected. The collected skin tissue samples were immersed in medium using collagenase, DNase I, and hyaluronidase, and cells were isolated using Gentle MACSTM Dissociator (Miltenyi Biotec). After the cells were separated, the separated cells were incubated with a mouse CD34-Biotin antibody (Miltenyi Biotec). Cells and antibody solutions were incubated with streptavidin microbeads (Miltenyi Biotec) and then separated using LS column (Miltenyi Biotec). The separated cells were cultured in DMEM medium containing 10% FBS, 1% penicillin/streptomycin solution in humidified air of 95% 02 and 5% CO2 at 37° C.
Cell proliferation can be confirmed using the BrdU cell proliferation assay kit (Cell Signaling). Proliferation assays were performed using protocols presented by […]. Briefly, the cells were incubated with BrdU for 2 h. The primary BrdU detection antibody was incubated for 1 hour and the secondary anti-mouse IgG, HRP-conjugate antibody was incubated for 30 minutes.
A hair growth in vitro assay was performed using the Cyquant Assay (Thermo Fisher). […]

Sequence | inducing proliferation of CD34+ hair follicle stem cells (relative cell number)
AEADQIIEYLKQQVSLLKEK (Homo sapiens N4 polypeptide; Neo-Pep-(11-30)) [Polypeptide N4, fragment of Neo-Pep consisting of 20 consecutive amino acids without KEKA] | didn't show any effect
AVLKRLEQKGAEADQIIEYL (Homo sapiens N1 polypeptide; Neo-Pep-(1-20)) [Polypeptide N1, fragment of Neo-Pep consisting of 20 consecutive amino acids without KEKA] | didn't show any effect
IEYLKQQVSLLKEKAILQAT (Homo sapiens N5 polypeptide; Neo-Pep-(17-36)) [Polypeptide N5, fragment of Neo-Pep comprising KEKA] | induced proliferation
KGAEADQIIEYLKQQVSLLK (Homo sapiens N3 polypeptide; Neo-Pep-(9-28)) [Polypeptide N3, fragment of Neo-Pep consisting of 20 consecutive amino acids without KEKA] | didn't show any effect
KQQVSLLKEKAILQATLREE (Homo sapiens N7 polypeptide; Neo-Pep-(21-40)) [Polypeptide N7, fragment of Neo-Pep comprising KEKA] | induced proliferation
LKRLEQKGAEADQIIEYLKQ (Homo sapiens N2 polypeptide; Neo-Pep-(3-22)) [Polypeptide N2, fragment of Neo-Pep consisting of 20 consecutive amino acids without KEKA] | didn't show any effect
QVSLLKEKAILQATLREEK (Homo sapiens N8 polypeptide; Neo-Pep-(23-41)) [Polypeptide N8, fragment of Neo-Pep comprising KEKA] | induced proliferation
YLKQQVSLLKEKAILQATLR (Homo sapiens N6 polypeptide; Neo-Pep-(19-38)) [Polypeptide N6, fragment of Neo-Pep comprising KEKA] | induced proliferation
